Like-named read-outs stand apart in the source and are kept apart here.
System: recombinant NL4-3 virus (Renilla luciferase) in MT-2 cells
Experiment: HIV cell culture assay (antiviral activity, luciferase readout in infected MT-2 cells)
Type: cell-based
Procedure, shortened: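 Nef-deleted NL4-3 carrying Renilla luciferase, produced by 293T transfection, used to infect MT-2 cells for 4–5 days with serial compound dilutions. Live-cell luciferase signal read as infection marker; EC50 from exponential median-effect equation.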

[1] = Renilla, NL43, read-out: Activity, antiviral activity class, recombinant NL4-3 Renilla luciferase virus in MT-2 cells
[2] = Renilla, NL43, recombinant NL4-3 Renilla luciferase virus in MT-2 cells

Row | Molecule | EC50 [1] [µM] | EC50 [2] [µM] | other results
1 | CCN(C(=O)[C@H](Cc1ccccc1)NC(=O)NS(=O)(=O)c1ccccc1C)c1ccc(OC)cc1 [Example 184, (S)—N-ethyl-N-(4-methoxyphenyl)-3-phenyl-2-(3-(o-tolylsulfonyl)ureido)propanamide] | < 0.1 |  | 
2 | CN(C(=O)[C@H](Cc1ccccc1)NC(=O)NS(=O)(=O)c1ccccc1C(F)(F)F)c1ccc2c(c1)OCO2 [Example 17, (S)—N-(benzo[d][1,3]dioxol-5-yl)-N-methyl-3-phenyl-2-(3-((2-(trifluoromethyl)phenyl)sulfonyl)ureido)propanamide] | 0.1 to 1 |  | 
3 | Cc1ccccc1S(=O)(=O)NC(=O)N[C@@H](Cc1ccc(Br)cc1)C(=O)N(C)c1ccc2c(c1)OCO2 [Example 57, (S)—N-(benzo[d][1,3]dioxol-5-yl)-3-(4-bromophenyl)-N-methyl-2-(3-(o-tolylsulfonyl)ureido)propanamide] | 1 to 10 |  | 
4 | COc1ccc(N(C)C(=O)[C@H](CC2CCCCC2)NC(=O)NS(=O)(=O)c2ccccc2C)cc1 [Example 195, (S)-3-cyclohexyl-N-(4-methoxyphenyl)-N-methyl-2-(3-(o-tolylsulfonyl)ureido)propanamide] | 1 to 10 |  | 
5 | CN(C(=O)[C@H](Cc1cc(F)cc(F)c1)NC(=O)NS(=O)(=O)c1ccccc1Cl)c1ccc2scnc2c1 [Example ZY-13, (S)—N-(benzo[d]thiazol-5-yl)-2-(3-((2-chlorophenyl)sulfonyl)ureido)-3-(3,5-difluorophenyl)-N-methylpropanamide] | < 0.1 | 0.03 | 
6 | Cc1ccccc1S(=O)(=O)NC(=O)N[C@@H](Cc1ccccc1)C(=O)N(C)c1ccc(F)cc1 [Example 169, (S)—N-(4-fluorophenyl)-N-methyl-3-phenyl-2-(3-(o-tolylsulfonyl)ureido)propanamide] | 0.1 to 1 |  | 
7 | CC(C)C1CC1S(=O)(=O)NC(=O)N[C@@H](Cc1ccccc1)C(=O)N(C)c1ccc2c(c1)OCO2 (stereo partly drawn) [Example 106, (2S)—N-(benzo[d][1,3]dioxol-5-yl)-2-(3-((2-isopropylcyclopropyl)sulfonyl)ureido)-N-methyl-3-phenylpropanamide] | 0.1 to 1 |  | 
8 | Cc1ccccc1S(=O)(=O)NC(=O)N[C@@H](Cc1ccccc1)C(=O)N1CCc2sccc2C1 [Example 186, (S)—N-((1-(6,7-dihydrothieno[3,2-c]pyridin-5(4H)-yl)-1-oxo-3-phenylpropan-2-yl)carbamoyl)-2-methylbenzenesulfonamide] | 1 to 10 | 3.59 | 
9 | (S)—N-((1-(3-methoxyazetidin-1-yl)-1-oxo-3-phenylpropan-2-yl)carbamoyl)-2-methylbenzenesulfonamide [Example 190] |  |  | EC50 (recombinant NL4-3 Renilla luciferase virus in MT-2 cells, read-out: EC50): > 100 µM
10 | Cc1ccccc1S(=O)(=O)NC(=O)N[C@@H](Cc1cc(F)cc(F)c1)C(=O)N(C)c1ccccc1F [Example CA-107, (S)-3-(3,5-difluorophenyl)-N-(2-fluorophenyl)-N-methyl-2-(3-(o-tolylsulfonyl)ureido)propanamide] | 1 to 10 |  | 
11 | Cc1ccccc1S(=O)(=O)NC(=O)N[C@@H](Cc1ccccc1)C(=O)N(C)c1ccc(OCC(N)=O)cc1 [Example 217, (S)—N-(4-(2-amino-2-oxoethoxy)phenyl)-N-methyl-3-phenyl-2-(3-(o-tolylsulfonyl)ureido)propanamide] | 0.1 to 1 |  | 
12 | CCN(C(=O)[C@H](Cc1ccccc1)NC(=O)NS(=O)(=O)c1cc(-c2ccoc2)ccc1C)c1ccc(OC)cc1 [Example 123, (S)—N-ethyl-2-(3-((5-(furan-3-yl)-2-methylphenyl)sulfonyl)ureido)-N-(4-methoxyphenyl)-3-phenylpropanamide] | 0.1 to 1 | 0.66 | 
13 | CN(C(=O)[C@H](Cc1ccccc1)NC(=O)NS(=O)(=O)c1ccccc1-c1cnn(C)c1)c1ccc2c(c1)OCO2 [Example 49, (S)—N-(benzo[d][1,3]dioxol-5-yl)-N-methyl-2-(3-((2-(1-methyl-1H-pyrazol-4-yl)phenyl)sulfonyl)ureido)-3-phenylpropanamide] |  | 1.34 | EC50 (read-out: Activity, antiviral activity class, recombinant NL4-3 Renilla luciferase virus in MT-2 cells): 1 to 10 µM
14 | CN(C(=O)[C@H](Cc1ccccc1)NC(=O)NS(=O)(=O)c1ccccc1OC(F)(F)F)c1ccc2c(c1)OCO2 [Example 14, (S)—N-(benzo[d][1,3]dioxol-5-yl)-N-methyl-3-phenyl-2-(3-((2-(trifluoromethoxy)phenyl)sulfonyl)ureido)propanamide] | < 0.1 |  | 
15 | CN(C(=O)[C@H](Cc1ccccc1)NC(=O)NS(=O)(=O)c1ccc(F)cc1F)c1ccc2c(c1)OCO2 [Example 18, (S)—N-(benzo[d][1,3]dioxol-5-yl)-2-(3-((2,4-difluorophenyl)sulfonyl)ureido)-N-methyl-3-phenylpropanamide] | 0.1 to 1 | 0.2 | 
16 | CN(C(=O)[C@H](Cc1ccccc1)NC(=O)NS(=O)(=O)Cc1cccc(Cl)c1)c1ccc2c(c1)OCO2 [Example 103, (S)—N-(benzo[d][1,3]dioxol-5-yl)-2-(3-((3-chlorobenzyl)sulfonyl)ureido)-N-methyl-3-phenylpropanamide] | 0.1 to 1 |  | 

Row | Molecule | EC50 [1] [µM] | EC50 [2] [µM] | other results
17 | CCc1ccc(C)c(S(=O)(=O)NC(=O)N[C@@H](Cc2ccccc2)C(=O)N(CC)c2ccc(OC)cc2)c1 [Example 144, (S)—N-ethyl-2-(3-((5-ethyl-2-methylphenyl)sulfonyl)ureido)-N-(4-methoxyphenyl)-3-phenylpropanamide] | 0.1 to 1 | 0.62 | 
18 | Cc1ccc2cc(N(C)C(=O)[C@H](Cc3ccccc3)NC(=O)NS(=O)(=O)c3ccccc3C)ccc2n1 [Example CA-72, (S)—N-methyl-N-(2-methylquinolin-6-yl)-3-phenyl-2-(3-(o-tolylsulfonyl)ureido)propanamide] | < 0.1 | 0.03 | 
19 | COc1ccc(N(CC(F)(F)F)C(=O)[C@H](Cc2ccccc2)NC(=O)NS(=O)(=O)c2ccccc2C)cc1 [Example 200, (S)—N-(4-methoxyphenyl)-3-phenyl-2-(3-(o-tolylsulfonyl)ureido)-N-(2,2,2-trifluoroethyl)propanamide] | 0.1 to 1 |  | 
20 | Cc1ccccc1S(=O)(=O)NC(=O)N[C@@H](Cc1ccc(C#N)cc1)C(=O)N(C)c1ccc2c(c1)OCO2 [Example 63, (S)—N-(benzo[d][1,3]dioxol-5-yl)-3-(4-cyanophenyl)-N-methyl-2-(3-(o-tolylsulfonyl)ureido)propanamide] | 1 to 10 |  | 
21 | CN(C(=O)[C@H](Cc1ccccc1)NC(=O)NS(=O)(=O)c1ccccc1-c1cccnc1)c1ccc2c(c1)OCO2 [Example 128, (S)—N-(benzo[d][1,3]dioxol-5-yl)-N-methyl-3-phenyl-2-(3-((2-(pyridin-3-yl)phenyl)sulfonyl)ureido)propanamide] | 1 to 10 |  | 
22 | Cc1ccccc1S(=O)(=O)NC(=O)N[C@@H](Cc1cc(F)cc(F)c1)C(=O)N(C)c1cccc2cnccc12 [Example CA-110, (S)-3-(3,5-difluorophenyl)-N-(isoquinolin-5-yl)-N-methyl-2-(3-(o-tolylsulfonyl)ureido)propanamide] | 0.1 to 1 |  | 
23 | C=C(C)c1ccccc1S(=O)(=O)NC(=O)N[C@@H](Cc1ccccc1)C(=O)N(C)c1ccc2c(c1)OCO2 [Example 134, (S)—N-(benzo[d][1,3]dioxol-5-yl)-N-methyl-3-phenyl-2-(3-((2-(prop-1-en-2-yl)phenyl)sulfonyl)ureido)propanamide] | 1 to 10 |  | 
24 | Cc1ccccc1S(=O)(=O)NC(=O)N[C@@H](Cc1ccccc1)C(=O)N(C)c1ccc2c(c1)CCCO2 [Example CA-79, (S)—N-(chroman-6-yl)-N-methyl-3-phenyl-2-(3-(o-tolylsulfonyl)ureido)propanamide] | < 0.1 |  | 
25 | CN(C(=O)[C@H](Cc1cc(F)cc(F)c1)NC(=O)NS(=O)(=O)c1ccccc1)c1ccc2c(c1)OC(F)(F)O2 [Example 41, (S)—N-(2,2-difluorobenzo[d][1,3]dioxol-5-yl)-3-(3,5-difluorophenyl)-N-methyl-2-(3-(phenylsulfonyl)ureido)propanamide] | 0.1 to 1 |  | 
26 | COc1ccc(N(C)C(=O)[C@H](Cc2ccccc2)NC(=O)NS(=O)(=O)c2ccccc2C)c(C)c1 [Example JB-83, (S)—N-(4-methoxy-2-methylphenyl)-N-methyl-3-phenyl-2-(3-(o-tolylsulfonyl)ureido)propanamide] | 0.1 to 1 |  | 
27 | Cc1ccc(N(C)C(=O)[C@H](Cc2ccccc2)NC(=O)NS(=O)(=O)c2ccccc2C)cc1 [Example CA-82, (S)—N-methyl-3-phenyl-N-(p-tolyl)-2-(3-(o-tolylsulfonyl)ureido)propanamide] | 0.1 to 1 |  | 
28 | COc1ccc(N(C)C(=O)[C@H](Cc2cccs2)NC(=O)NS(=O)(=O)c2ccccc2C)cc1 [Example 198, (S)—N-(4-methoxyphenyl)-N-methyl-3-(thiophen-2-yl)-2-(3-(o-tolylsulfonyl)ureido)propanamide] | 0.1 to 1 | 0.27 | 
29 | COc1ccc2c(c1)OCCN2C(=O)[C@H](Cc1ccccc1)NC(=O)NS(=O)(=O)c1ccccc1C [Example 172, (S)—N-((1-(7-methoxy-2H-benzo[b][1,4]oxazin-4(3H)-yl)-1-oxo-3-phenylpropan-2-yl)carbamoyl)-2-methylbenzenesulfonamide] | 0.1 to 1 | 0.27 | 
30 | Cc1ccccc1S(=O)(=O)NC(=O)N[C@@H](Cc1ccccc1C#N)C(=O)N(C)c1ccc2c(c1)OCO2 [Example 77, (S)—N-(benzo[d][1,3]dioxol-5-yl)-3-(2-cyanophenyl)-N-methyl-2-(3-(o-tolylsulfonyl)ureido)propanamide] | 1 to 10 |  | 
31 | CCN(C(=O)[C@H](Cc1ccccc1)NC(=O)NS(=O)(=O)c1cccc(-c2cc3c(OC)cccc3[nH]2)c1C)c1ccc(OC)cc1 [Example 162, (S)—N-ethyl-2-(3-((3-(4-methoxy-1H-indol-2-yl)-2-methylphenyl)sulfonyl)ureido)-N-(4-methoxyphenyl)-3-phenylpropanamide] | 1 to 10 |  | 
32 | Cc1ccccc1S(=O)(=O)NC(=O)N[C@@H](Cc1ccccc1C(N)=O)C(=O)N(C)c1ccc2c(c1)OCO2 [Example 66, (S)-2-(3-(benzo[d][1,3]dioxol-5-yl(methyl)amino)-3-oxo-2-(3-(o-tolylsulfonyl)ureido)propyl)benzamide] |  | > 100 | 
